This is an account of results in patent US20230125667A1, “NOVEL TDZD ANALOGS AS AGENTS THAT DELAY, PREVENT, OR REVERSE AGE-ASSOCIATED DISEASES AND AS ANTI-CANCER AND ANTILEUKEMIC AGENTS” (United States Government as represented by the Department …, priority 2020, published 2023).

The subject of one assay is C. elegans strain AM141. The experiment in a line: Q40::YFP aggregates in C. elegans strain AM141. The assay is classed as in vivo. The procedure:
(§1) Several TDZD-conjugated drugs (putative GSK-3 inhibitors) were evaluated for their ability to reduce accumulation of protein aggregates, and for protection against aggregation-associated end-points in the following model systems: (i.) SH-SY5Y-APPSw, a neuroblastoma cell line expressing the Swedish mutation of Amyloid Precursor Protein (APPSw), and thus predisposed to form β-amyloid deposits; (ii.) C. elegans strain CL4176, a model of Alzheimer-like amyloidopathy that can be induced to express human Aβ1-42 in muscle, or may express it at a lower level without induction; (iii.) C. elegans strain AM141, a model of Huntington-like polyglutamine aggregation that constitutively expresses Q40::YFP (a tract of 40 glutamines fused in-frame to yellow fluorescent protein) in muscle cells and forms aggregates progressively with adult aging. The TDZD analog PNR-962 (a putative GSK-3 inhibitor) and other related compounds (not shown) were protective in all aggregation assays.
Fresh agar plates supporting bacterial lawns, which serve as food for C. elegans, were prepared at least 1 day ahead of use. C. elegans AM141 (forming Q40::YFP aggregates in muscle, progressively in early adulthood) were placed on these 100-mm plates. Day-4 adult worms were lysed with alkaline hypochlorite solution to obtain eggs from worms, a procedure that permits synchronization of worms in a cohort. Eggs were placed on plates spotted with different concentrations of TDZD analogues after allowing the compounds to be evenly distributed on the plates (˜1 hour after adding drugs to plates). Vehicle-only (DMSO) controls are included in each experiment, as a baseline for drug effects in experimental groups. Young-adult AM141 (day-3 adults) were transferred on alternate days onto fresh plates that contained the same doses of compounds, with fresh E. coli to prevent starvation of worms. Equal samples (n=25) were randomly picked from experimental groups and control group for microscopic imaging. Using an in-house plugin for ImageJ software (NIH), several images of AM141 were processed for aggregate count per worm. The fluorescence intensity of each aggregate (indicating the size/content of protein aggregates) was also measured. Each drug treatment was repeated multiple times to validate the results.

The subject of a further assay is wild-type nematodes. The experiment in a line: Lifespan of C. elegans. The note with it: FIG. 8. In kind it is in vivo. The method, then:
It was previously shown that several interventions that improve age-associated phenotypes also modulate lifespan (Ayyadevara et al. (2017) Antioxid Redox Signal. 27(17): 1383-1396; Ayyadevara et al. (2005) Aging Cell. 4(5): 257-271). The lifespan was assessed in C. elegans, either mock-treated or exposed to TDZD analogues. PNR-962 and BSK-179 extended the lifespan of wild-type nematodes to an identical degree, increasing the mean by roughly 25-30% (P<0.001; FIG. 8).
To obtain synchronized eggs for lifespan studies, worms were maintained for 2 generations, free of contamination and starvation. Healthy, well-fed adult worms from the 2nd generation were then lysed, and eggs placed on plates with appropriate doses of TDZD analogue PNR962, or DMSO vehicle alone (for a final concentration of 0.02% v/v DMSO). At the L4 larval stage, worms were transferred daily to fresh plates for 7 days, and thereafter on alternate days until all the worms are dead. C. elegans that moved spontaneously or responded to gentle prodding were scored as alive. For the mortality computation, worms that were lost for reasons other than natural death were censored. The methods described were adopted from previously described experimental procedures (Ayyadevara, et al. (2016) PIP3-binding proteins promote age-dependent protein aggregation and limit survival in C. elegans. Oncotarget, 7(31): 48870-48886; Bharill, et al. (2013) Extreme Depletion of PIP3 Accompanies the Increased Life Span and Stress Tolerance of PI3K-null C. elegans Mutants. Frontiers in Genetics, 4).

In another assay the test system is SH-SY5Y-APPSw cells. As to the kind of experiment: Thioflavin-T staining of amyloid-like aggregates in SH-SY5Y-APPSw cells. In kind it is cell-based, human. The procedure: as §1
First, the effects of TDZD analogues were tested on the human neuroblastoma cell line SH-SY5Y-APPSw, a model of Alzheimer-like amyloid aggregation expressing the “Sw” mutant form of Amyloid Precursor Protein, APP. These drugs all produced significant reductions in amyloid-like aggregates, by 30-50% as quantified by thioflavin-T staining intensity (data for PNR-962 are shown in FIG. 4). Modified TDZD-8 analogues PNR-962 and BSK-179 are more anti-aggregative than TDZD-8, lowering total amyloid-staining intensity by a further 14% (data not shown).
Following previously described experimental procedures (Liu, et al. (2005). S100B-induced microglial and neuronal IL-1 expression is mediated by cell type-specific transcription factors. Journal of Neurochemistry. 92(3): 546-553), SH-SY5Y-APPSw neuronal cells expressing an aggregation-prone double mutant of amyloid precursor protein (APPSw) were cultured in DMEM plus 10% (v/v) fetal bovine serum (FBS) at 37° C. Cells were suspended in trypsin/EDTA and rinsed in PBS prior to re-plating or harvesting. […] Human neuroblastoma cells were treated with PNR962, either simultaneous with sAPPα or beginning 1 h prior to sAPPα addition (pre-treatment) in order to ascertain the protective benefits of PNR962 on protein aggregation in human neuroblastoma cell lines. A similar experimental procedure was followed to examine the effect of treatment with these analogs on non-neuronal human cells, exposing human embryonic kidney cells (HEK) that express tau-like aggregates (found in AD-associated diseases) to 0.001, 0.01, and 1-μM doses of TDZD-8 and its analogues.
To observe the protective effects of the novel TDZD analogs on protein aggregation in SY5Y-APPSw cells, using DMEM medium containing 10% fetal calf serum in […], cells were cultured at 37′C for 26 hrs allowing cells to approximately double in number. After 48 h of cell incubation in the presence of specified concentrations of drug or vehicle, cells were fixed 15 min in formaldehyde (4% v/v), washed, and stained 20 min at ˜22° C. in a dark container with 0.1% w/v Thioflavin T mixed with DAPI (1 μg/ml; Life Technologies, Grand Island, N.Y., USA). […] The intensity of aggregate/thioflavin-T fluorescence per field was quantified via an Image J plug-in developed in-house, and normalized to the number of DAPI^+ nuclei counted per field, to obtain an average intensity of aggregates per cell for each treatment.

The next assay has as its system C. elegans. The note with it: in vivo; cited from earlier work.

Take `CC(=O)Oc1ccccc1C(=O)NCc1ccc(Cn2c(=O)sn(CCCl)c2=O)cc1` [BSK-179]: in the assay on C. elegans strain AM141 (C. elegans model of Huntington's Disease (FIG. 7)), the “number of aggregation foci” value is on record as “decreases”. Moreover, in the assay on C. elegans strain AM141 (FIG. 7), the “reduction of total intensity of Q40::YFP aggregates” value was more than 2 fold. The lifespan entry in the assay on wild-type nematodes is reported as “increased”. Moreover, the “further lowering of total amyloid-staining intensity relative to TDZD-8” value in the assay on SH-SY5Y-APPSw cells (data not shown) came to 14%. For the same molecule, the “amyloid accumulation (thioflavin T stained foci)” value in the assay on SH-SY5Y-APPSw cells (treated for 2 days (FIG. 9)) is recorded as “reduces amyloid accumulation”.

On to `CC(=O)Oc1ccccc1C(=O)O` [aspirin, acetylsalicylic acid, reference compound], for which the lifespan entry in the assay with wild-type nematodes is reported as “increased”. Besides, in the assay with C. elegans, the “extension of nematode lifespan” value is 22%.
